Measurements reported in patent publication US11247973B2 (The University of Durham, priority 2016, dated 2022).
Where “and” joins values, the source holds several entries; their conditions need not be identical. Equal values may be shown once. Read-outs that look alike come from different tables or passages of the source.

Assays:
Format in all cases: cell-based
[1] = Cell cytotoxicity CC50 assay (A549 and HeLa cells); settings: human, 6-8 days, DMEM+2% FCS
Excerpt: (§1) Cells were obtained from ATCC and the virus preparation was subjected to one round of centrifugation through a 40% (V/V) glycerol to remove any interferon produced from infected cells. Growth medium was Dulbecco's modified Eagle's medium (DMEM) with 10% (v/v) foetal calf serum (FCS), Viral maintainance medium was DMEM+2% (v/v) FCS.
Cell Cytotoxicity—CC50 (Concentration at which 50% Cell Toxicity is Observed):
(§2) A549 cells and HeLa cells were used to seed a set of 96 well plates grown until 50% confluent, a 2 fold serial dilution of the compound was performed on each cell line with DMSO (only) as control starting with 100 μM of the compound. Medium used was DMEM+2% FCS (normal medium for viral growth).
(§3) Cells were allowed to grow for 6-8 days to mimic a TCID50 assay after which cell viability was determined by adding Almar blur (similar to XT) and reading at 600 nm (excitation 540 nm).

RSV = assay: Cytopathic effect (CPE) assay; settings: human respiratory syncytial virus, read-out: CPE IC50
Excerpt: as §1
Cytopathic Effect (CPE) Assay—IC50:
as §2, §3

RSV A2 VR-1540 = assay: Second plaque reduction assay (HEp-2 cells); settings: multiple values = multiple test occasions
Excerpt: as §1, with “maintenance” for “maintainance”
The RSV plaque reduction assay is an infectivity assay which allows quantification of the number of infectious units in a distinct foci of RSV infection. This is indicated by zones of viral antigen detected by specific antibody staining within a monolayer of otherwise healthy tissue culture cells. As each plaque originates from a single infectious virus particle an accurate calculation of the anti-viral effect can be obtained by counting plaques in the presence and absence of an anti-viral compound. HEp-2 cells (ATCC, CCL23) were passaged in flasks and seeded in 96-well plates in DMEM containing antibiotics and supplemented with 10% FBS. During inoculation and subsequent incubation, cells were cultured in DMEM containing 3% FBS. 100 plaque forming unit (PFU)/well of RSV (RSV A2 VR-1540) was mixed with ten serial dilutions of compound. Subsequently, 100 μL of the virus/compound mixtures was added to confluent HEp-2 cell monolayers. The cells and virus/compound mixtures were incubated at 35° C. in a humidified 5% CO2 incubator for 1 day.
Cells were washed twice with PBS before adding 50% v/v EtOH/MeOH, and then stored at −20° C. On the day of the staining, fixative was first removed from the plates. Plates were washed 3× with PBS. A pre-titrated amount of the primary antibody was added in 60 μL PBS/2% milk powder, and plates incubated for 1 h at rt. The plates were washed 3× with PBS/0.05% Tween20 before addition of goat anti-mouse horse radish peroxidase in 60 μL PBS/2% milk powder, and incubated for 1 h at rt. Following three wash steps with PBS/0.05% Tween20, 60 μL ready-to-use TrueBlue was added and plates were incubated at rt for 10-15 min before adding MilliQ water. Plates were washed once with water, incubated for 30-60 min and after removal of water, air-dried in the dark.
Plates were scanned and analyzed using the Immunospot S6 UV analyzer, which is equipped with BioSpot analysis software for counting immunostained plaques (virospots). Plaque counts were used to calculate % infection relative to the mean of the spot count (SC) in the virus control wells for RSV. IC50/IC90 values were calculated as 50% or 90% reduction in signal, respectively, by interpolation of inhibition curves fitted with a 4-parameter nonlinear regression with a variable slope in GraphPad 5.0 (Prism).

HepG2 cells = assay: Cell cytotoxicity CC50, HepG2 cells (CellTox Green); settings: 48-hour incubation, multiple values = multiple test occasions, read-out: Tox CC50
Protocol: (§4) HepG2 cells, in media supplemented with 10% fetal bovine serum (FBS), were seeded at […] into white walled 96 well plates and incubated at 37° C., 5% CO2. Twenty-four hours post seeding media was removed and replaced with media supplemented with 2% FBS and containing final compound concentrations equal to those tested in parallel virus plaque assays. Following a further 48-hour incubation cell cytotoxicity was determined using the CellTox™ Green (Promega) kit and […] read using an appropriate protocol on a GloMax® Explorer System (Promega). During analysis DMSO containing wells were used as a negative control and lysed cells as a positive control.

[2] = as above; settings: human, 48-hour incubation, multiple values = multiple test occasions, read-out: Tox CC50
Protocol: as §4

[3] = human respiratory syncytial virus, HEp-2, 24 h, read-out: Plaque IC50, HEp-2 cells, RSV A2, 1 day
[4] = read-out: Plaque IC50, HEp-2 cells, RSV A2, 1 day

Structure (SMILES)	CC50 (HepG2 cells)	IC50 (RSV A2 VR-1540; [3])	IC50 (RSV A2 VR-1540; [4])	CC50 at 48 h [2]	further results
O=C(CNc1ccccc1)N[C@H]1N=C(c2ccccc2)c2ccccc2NC1=O [Compound 1, N-{(3S)-2-oxo-5-phenyl-2,3-dihydro-1H-1,4-benzodiazepin-3-yl](phenylamino)acetamide]					CC50 [1]: 25 µM; IC50 (RSV; A549 cells and HeLa cells, 6-8 days, DMEM+2% FCS): 2500 nM
CCOc1nc(F)c(F)c(NCC(=O)N[C@H]2N=C(c3ccccc3)c3ccccc3NC2=O)c1F [Compound 4, 2-[(2-ethoxy-3,5,6-trifluoropyridin-4-yl)amino]-N-{(3S)-2-oxo-5-phenyl-2,3-dihydro-1H-1,4-benzodiazepin-3-yl]acetamide]					CC50 [1]: > 100 µM; IC50 (RSV): 2500 nM
O=C1Nc2ccccc2C(c2ccccc2)=N[C@@H]1NC(=O)[C@H]1CCCN1c1c(F)c(F)nc(F)c1F [Compound 6, N(2R)-N-[(3S)-2-oxo-5-phenyl-2,3-dihydro-1H-1,4-benzomazepin-3-yl]-1-(2,3,5,6-tetrafluoropyridin-4-yl)pyrrolidine-2-carboxamide]	> 25 µM				IC50 (RSV A2 VR-1540; HEp-2 cells, RSV A2, 1 day, read-out: Plaque IC50): 4.39 µM and 8.33 µM
CC(C)[C@H](Nc1c(F)c(F)nc(F)c1F)C(=O)N[C@H]1N=C(c2ccccc2)c2ccccc2NC1=O [Compound 7, (2S)-3-Methyl-N-[(3S)-2-oxo-5-phenyl-2,3-dihydro-1H-1,4-benzodiazepin-3-yl]-2-[(2,3,5,6-tetrafluoropyridin-4-yl)amino]butanamide]	> 25 µM	5.18 µM	8.68 µM and 10 µM	16 µM	
CC(C)[C@@H](Nc1c(F)c(F)nc(F)c1F)C(=O)N[C@H]1N=C(c2ccccc2)c2ccccc2NC1=O [Compound 8, (2R)-3-Methyl-N-[(3S)-2-oxo-5-phenyl-2,3-dihydro-1H-1,4-benzodiazepin-3-yl]-2-[(2,3,5,6-tetrafluoropyridin-4-yl)amino]butanamide]	16.3 µM			> 25 µM	
C[C@H](Nc1c(F)c(F)nc(F)c1F)C(=O)N[C@H]1N=C(c2ccccc2)c2ccccc2NC1=O [Compound 9, (2S)-N-[(3S)-2-oxo-5-phenyl-1,3-dihydro-1,4-benzodiazepin-3-yl]-2-[(2,3,5,6-tetrafluoropyridin-4-yl)amino]propanamide]		5.22 µM	3.76 µM	> 25 µM	
C[C@@H](Nc1c(F)c(F)nc(F)c1F)C(=O)N[C@H]1N=C(c2ccccc2)c2ccccc2NC1=O [Compound 10, (2R)-N-[(3S)-2-oxo-5-phenyl-1,3-dihydro-1,4-benzodiazepin-3-yl]-2-[(2,3,5,6-tetrafluoropyridin-4-yl)amino]propanamide]		3.38 µM	1.79 µM	> 25 µM	
O=C(N[C@H]1N=C(c2ccccc2)c2ccccc2NC1=O)[C@H](Cc1ccccc1)Nc1c(F)c(F)nc(F)c1F [Compound 11]	> 25 µM				
O=C(CNc1nc(F)c(F)c(N2CCOCC2)c1F)N[C@H]1N=C(c2ccccc2)c2ccccc2NC1=O [Compound 14, N-[(3S)-2-oxo-5-phenyl-2,3-dihydro-1H-1,4-benzodiazepin-3-yl]-2-{[3,5,6-trifluoro-4-(morpholin-4-yl)pyridin-2-yl]amino}acetamide]				> 25 µM	
O=C(CNc1cc(Cl)ncn1)N[C@H]1N=C(c2ccccc2)c2ccccc2NC1=O [Compound 18, 2-[(6-Chloropyrimidin-4-yl)amino]-N-[(3S)-2-oxo-5-phenyl-2,3-dihydro-1H-1,4-benzodiazepin-3-yl]acetamide]		4.93 µM	9.33 µM	> 25 µM	
